Data taken from US20240392231A1, “BACTERIOLYSIS METHOD AND BACTERIA DETECTION METHOD” (ASAHI KASEI KABUSHIKI KAISHA, priority 2021, published 2024).

Experiments:
[1] = test system: Escherichia coli (EC); test: Bacteriolysis and immunochromatographic detection, test line intensity by image processing; type: cell-based
Protocol: (§1) Escherichia coli (EC) was selected as the Gram-negative bacteria and Staphylococcus aureus (SA) as the Gram-positive bacteria, and each was dissolved in saline to prepare a solution with a concentration of 1e5 cfu/ml. Normal saline was also used as the bacteria-free solution.
(§2) 0.1M Tris-HCl (pH 7.4) buffer was mixed with 2.0 μg/ml of lysostaphin enzyme (the final concentration after mixing with the bacterial solution for evaluation (sample) was 1.0 μg/ml) and 0.2 mass % Tween20 for immunochromatographic development and used as a mother solution to prepare various reaction solutions with DDAO concentrations of from 0 to 0.5 mass % (the final concentrations after mixing with the bacterial solution for evaluation (sample) were 0 to 0.25 mass %) or benzalkonium chloride concentrations of 0 to 0.5 mass % (the final concentrations after mixing with the bacterial solution for evaluation (sample) were 0 to 0.25 mass %).
(§3) Bacterial lysis and detection performance by antigen-antibody reaction were evaluated by inserting the immunochromatographic test strip prepared in Example 1 into a 1:1 mixture of the bacterial solution for evaluation and the various reaction solutions described above. The evaluation was made by photographing the test line area with a camera and quantifying the degree of redness of the test line area due to gold colloids via image processing (from the RGB values, the G value was used as indicating the red absorption. This is indicated as “test line intensity” in the graphs below). A higher test line intensity indicates a higher degree of redness, and a test line intensity of 10 or higher is considered visually positive.

[2] = test system: Staphylococcus aureus (SA); test: as above; type: cell-based
Protocol: as §1, §2, §3
To see the effect of lysostaphin, Staphylococcus aureus (SA) was dissolved in saline to prepare a solution with a concentration of 1e6 cfu/ml. Normal saline was also used as the bacteria-free solution.
0.1M Tris-HCl (pH 7.4) buffer was mixed with DDAO at a concentration 0.15 mass % (the final concentration after mixing with the bacterial solution for evaluation (sample) was 0.075 mass %) or benzalkonium chloride at a concentration of 0.05 mass % (the final concentration after mixing with the bacterial solution for evaluation (sample) was 0.025 mass %) as well as 0.2 mass % of Tween20 for immunochromatographic development and used as a mother solution to prepare various reaction solutions with lysostaphin enzyme concentrations of 0 to 50 μg/ml (the final concentration after mixing with the bacterial solution for evaluation (sample) were 0 to 25 μg/ml).
Bacterial lysis and detection performance by antigen-antibody reaction (test line intensity) were evaluated by inserting the immunochromatographic test strip prepared in Example 1 into a 1:1 mixture of the bacterial solution for evaluation and the various reaction solutions described above.

## benzalkonium chloride
[1]; final benzalkonium chloride exceeding 0.075 mass %, FIG. 3
  test line intensity EC: decrease in test line intensity
[1]; final benzalkonium chloride up to 0.075 mass % vs none, lysostaphin 1.0 μg/ml, 1e5 cfu/ml, FIG. 3
  bacteriolysis efficiency and test line intensity EC: higher bacteriolysis efficiency and test line intensity
[2]; final benzalkonium chloride 0 to 0.065 mass %, lysostaphin 1.0 μg/ml, 1e5 cfu/ml, FIG. 3
  test line intensity SA: increased
[2]; final benzalkonium chloride exceeding 0.07 mass %, FIG. 3
  test line intensity SA: decreased

## lysostaphin: bacteriolysis enzyme, protein hydrolysis enzyme
[2]; lysostaphin final concentration exceeding 0.01 μg/ml, DDAO 0.075 mass %, 1e6 cfu/ml, FIG. 4
  test line intensity SA: high test line intensity
[2]; lysostaphin final concentration exceeding 0.01 μg/ml, benzalkonium chloride 0.025 mass %, 1e6 cfu/ml, FIG. 5
  test line intensity SA: high test line intensity

## CCCCCCCCCCCC[N+](C)(C)[O-] [DDAO, N,N-dimethyldodecylamine N-oxide]
[1]; higher final concentrations of DDAO vs absence of DDAO, lysostaphin 1.0 μg/ml, 1e5 cfu/ml, FIG. 2
  test line intensity EC: higher test line intensities
[2]; final DDAO 0 to 0.05 mass %, lysostaphin 1.0 μg/ml, 1e5 cfu/ml, FIG. 2
  test line intensity SA: increased
[2]; final DDAO above 0.1 mass %, lysostaphin 1.0 μg/ml, 1e5 cfu/ml, FIG. 2
  test line intensity SA: decreased
[2]; final DDAO between 0.05 and 0.1 mass %, lysostaphin 1.0 μg/ml, 1e5 cfu/ml, FIG. 2
  test line intensity SA: remained almost constant
